Results: ChEMBL document CHEMBL1135080, “Pyridazine based inhibitors of p38 MAPK” (Bioorg Med Chem Lett, 2002)

Experiments:
MAP kinase p38 [1] = biological target: T1, MAP kinase p38 (Homo sapiens, UniProt O15264+Q15759+Q16539+P53778); test: Inhibition of Mitogen-activated protein kinase p38 at 1000 nM; format: protein assay
MAP kinase p38 [2] = biological target: T1, MAP kinase p38; test: Inhibition of Mitogen-activated protein kinase p38; format: protein assay
[3] = biological target: T2, Mitogen-activated protein kinase 9 (Homo sapiens, UniProt P45984); test: Inhibition of JNK2-alpha-1 kinase
T2 sequence (P45984 whole entry): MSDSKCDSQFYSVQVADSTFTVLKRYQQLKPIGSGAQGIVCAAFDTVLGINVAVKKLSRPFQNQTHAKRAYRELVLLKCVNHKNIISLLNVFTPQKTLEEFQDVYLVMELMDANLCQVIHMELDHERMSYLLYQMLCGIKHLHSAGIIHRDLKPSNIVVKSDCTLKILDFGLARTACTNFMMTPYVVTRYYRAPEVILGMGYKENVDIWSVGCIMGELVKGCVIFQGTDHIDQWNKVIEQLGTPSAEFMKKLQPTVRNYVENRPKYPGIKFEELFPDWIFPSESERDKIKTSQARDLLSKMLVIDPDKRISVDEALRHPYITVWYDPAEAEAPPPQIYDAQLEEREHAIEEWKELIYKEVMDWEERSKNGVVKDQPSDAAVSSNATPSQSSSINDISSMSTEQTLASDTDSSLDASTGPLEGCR

[4] = biological target: T2, Mitogen-activated protein kinase 9; test: Inhibition of JNK2-alpha-2 kinase
[5] = biological target: Tyrosine-protein kinase Lck (Homo sapiens) (UniProt P06239); test: Inhibition of LCK1 kinase at 15000 nM
Chain of Tyrosine-protein kinase Lck (Homo sapiens) (P06239 2-509 limits assumed): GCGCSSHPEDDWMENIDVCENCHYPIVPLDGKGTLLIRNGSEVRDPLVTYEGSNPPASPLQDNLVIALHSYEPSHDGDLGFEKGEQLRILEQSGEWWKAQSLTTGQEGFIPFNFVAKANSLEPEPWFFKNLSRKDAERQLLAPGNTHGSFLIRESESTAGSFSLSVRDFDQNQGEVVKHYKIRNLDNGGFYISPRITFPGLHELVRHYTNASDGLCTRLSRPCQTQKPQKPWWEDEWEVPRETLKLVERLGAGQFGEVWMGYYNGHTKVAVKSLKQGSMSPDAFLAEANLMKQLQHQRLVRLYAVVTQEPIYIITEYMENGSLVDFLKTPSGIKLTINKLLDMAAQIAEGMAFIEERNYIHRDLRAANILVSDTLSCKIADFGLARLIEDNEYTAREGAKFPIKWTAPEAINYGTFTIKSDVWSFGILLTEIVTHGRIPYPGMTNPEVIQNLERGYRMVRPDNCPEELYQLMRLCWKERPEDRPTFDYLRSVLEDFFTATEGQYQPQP

[6] = biological target: RAF proto-oncogene serine/threonine-protein kinase (Homo sapiens) (UniProt P04049); test: Inhibition of c-Raf kinase at 5000 nM
Chain of RAF proto-oncogene serine/threonine-protein kinase (Homo sapiens) (P04049 whole entry): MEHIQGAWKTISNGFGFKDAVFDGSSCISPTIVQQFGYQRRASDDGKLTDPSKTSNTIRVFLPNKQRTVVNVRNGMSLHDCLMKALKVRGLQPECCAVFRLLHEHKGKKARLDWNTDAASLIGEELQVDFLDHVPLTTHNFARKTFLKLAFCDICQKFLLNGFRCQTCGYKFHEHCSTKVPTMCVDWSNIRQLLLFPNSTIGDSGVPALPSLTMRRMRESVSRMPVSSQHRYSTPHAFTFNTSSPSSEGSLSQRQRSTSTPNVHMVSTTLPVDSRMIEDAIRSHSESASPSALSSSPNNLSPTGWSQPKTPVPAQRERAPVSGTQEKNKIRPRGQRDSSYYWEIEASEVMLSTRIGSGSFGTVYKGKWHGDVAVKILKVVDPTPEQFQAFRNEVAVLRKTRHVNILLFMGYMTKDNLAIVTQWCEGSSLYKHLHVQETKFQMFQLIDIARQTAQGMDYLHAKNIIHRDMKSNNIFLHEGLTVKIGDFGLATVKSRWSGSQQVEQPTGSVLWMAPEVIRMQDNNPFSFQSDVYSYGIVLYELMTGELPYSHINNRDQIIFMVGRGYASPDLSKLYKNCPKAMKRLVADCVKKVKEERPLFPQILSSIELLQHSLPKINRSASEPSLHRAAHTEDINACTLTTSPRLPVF

IC50 (MAP kinase p38 [2]) [nM] | other results | SMILES
– | inhibition (MAP kinase p38 [1]): 4.81% | C[C@H](Nc1nccc(-c2nnc(C3CCNCC3)cc2-c2cccc(C(F)(F)F)c2)n1)c1ccccc1
0.6 | – | C[C@H](Nc1nccc(-c2cc(N3CCNCC3)nnc2-c2cccc(C(F)(F)F)c2)n1)c1ccccc1
7.4 | – | CC1CCN(c2cc(-c3ccnc(N[C@@H](C)c4ccccc4)n3)c(-c3cccc(C(F)(F)F)c3)nn2)CC1
1.4 | – | C[C@H](Nc1nccc(-c2cc(N(C)CCN(C)C)nnc2-c2cccc(C(F)(F)F)c2)n1)c1ccccc1
12000 | – | C[C@H](Nc1nccc(-c2nc(C3CCNCC3)n(C)c2-c2cccc(C(F)(F)F)c2)n1)c1ccccc1
20.1 | – | C[C@H](Nc1nccc(-c2cc(N3CCCCC3)nnc2-c2cccc(C(F)(F)F)c2)n1)c1ccccc1
2.5 | – | C[C@H](Nc1nccc(-c2cc(N(C)C)nnc2-c2cccc(C(F)(F)F)c2)n1)c1ccccc1
2.6 | IC50 [3]: 820 nM; IC50 [4]: 1400 nM; inhibition [5]: 22%; inhibition [6]: 29% | C[C@H](Nc1nccc(-c2cc(N3CCOCC3)nnc2-c2cccc(C(F)(F)F)c2)n1)c1ccccc1
1.9 | – | C[C@H](Nc1nccc(-c2cc(N3CCN(C)CC3)nnc2-c2cccc(C(F)(F)F)c2)n1)c1ccccc1
